Reference: US6291247A, “Methods of screening for factors that disrupt neurotrophin conformation and reduce neurotrophin biological activity” (priority 1996, dated 2001)

Legend:
p75^NTR and TrkA [1] = biological target: T1, p75^NTR and TrkA (Mus musculus, UniProt P01139); experiment: Binding of 125I-NGF to PC12 cells (p75NTR + TrkA); set-up: species or system rat; settings: for Total Binding to PC12 cells: 100 μM, 125I-NGF, 120 min
T1 construct: these cells express both NGF receptor types; endogenous in cells; host or cells: PC12 rat pheochromocytoma cells
Procedure: (§1) PC12 cells were grown in RPMI with 10% heat inactivated donor horse serum and 5% fetal calf serum. […] The tubes were incubated for 2 hr at 4° C. and 100 μl aliquots (providing triplicate data points for each sample) were transferred to 400 μl microcentrifuges containing 200 μl of 10% glycerol in HKR. Tubes were centrifuged for 2 minutes at 5,000 rpm, the tip containing the cell pellet cut off and radioactivity bound to the cells was determined.

p75^NTR and TrkA [2] = system: T2, p75^NTR and TrkA; experiment: Binding of 125I-NGF to PC12 cells (p75NTR + TrkA); set-up: species or system rat
T2 construct: these cells express both NGF receptor types; endogenous in cells; host or cells: PC12 rat pheochromocytoma cells
Procedure: as §1

NGF = biological target: T3, NGF (Mus musculus, UniProt P01139); experiment: NGF protomer crosslinking with BS3 (NGF conformation), metal ions; assay type: biochemical; settings: for NGF Protomer Conformation (active/inactive): 100 μM
T3 construct: homodimer
Procedure: For crosslinking NGF […], 0.4 mM BS^3 was added to the mixture and incubated for 30 minutes at 25° C. […] For CD studies, NGF (50 μg/ml) was dissolved in 50 mM Tris-HCl buffer and spectra recorded using a computer controlled Jasco J-600 spectropolarimeter. Samples were acquired in the absence or presence of Zn^2+ (100 μM) at 22° C. in a 2 mm quartz cell averaged over eight scans. Modification of His residues by DEPC was carried out as previously described, where the molar excess of DEPC added and the extent of reaction was determined by evaluating the loss of binding activity of the modified product.

PC12 cells [3] = experiment: NGF-dependent survival of PC12 cells; assay type: cell-based, rat; settings: for Antagonism of NGF-dependent survival: high (1 nM) or low (50 pM) NGF; for Survival @ 50 pM NGF / Survival @ 1 nM NGF: rat, pc12 cells, 100 µM
Procedure: (§2) Effects of divalent ions on NGF mediated survival and toxicity was evaluated using a colorimetric assay for the lysosomal enzyme acid phosphatase to determine cell number (Connolly, D. T., Knight, M. B., Harakas, N. K, Wittwer, A. J. & Feder, J. Determination of the number of endothelial cells in culture using an acid phosphatase assay. Anal. Biochem. 152, 136-140 (1986); Ueda, Y., Walsh, E., Nakanishi H. & Yoshida, K. A. colorometric assay method for the evaluation of neurotrophic activity in vitro. Neurosci. Lett. 165, 203-207 (1994)). […] To evaluate toxicity, the cells were seeded and maintained without NGF in RPMI with 10% heat inactivated donor horse serum and 5% fetal calf serum in the presence of additives. Loss in viable cell number was determined and expressed as a percent of control. NGF rescues PC12 cells from cell death in serum-free medium(Greene, L. A. Nerve growth factor prevents the death and stimulates neuronal differentiation of clonal PC12 pheochromocytoma cells in serum-free medium. J. Cell Biol. 78, 747-755 (1978)). NGF-dependent survival was assessed by harvesting PC12 cells in balanced salt solution followed with washing by 4 cycles of suspension and centrifugation in serum-free RPMI prior to seeding in 96 well plates. After incubation with additives, medium was removed from the wells and cells washed once with 200 μl PBS. Buffer containing 0.1M sodium acetate pH 5.5, 0.1% Triton X-100 and 10 mM p-nitrophenyl phosphate (Sigma 104 phosphatase substrate) was added to each well (100 μl). Plates were incubated at 37° C. for 3 hours. The reaction was stopped by the addition of 10 μl/well of 1N sodium hydroxide and the color development measured at 405 nm using a microplate reader. The relationship between cell number and enzyme activity was linear over the range 1000 to 15,000 cells.
(§3) To explore the ability of other transition metals to influence the biological activities of NGF, a series of cations known to mimic in certain respects the binding of zinc to proteins were tested. […] For this reason these ions were not tested in NGF- dependant growth phenomena. […] As these studies appeared to indicate potentially complex results upon metal ions binding to NGF, a receptor crosslinking system where specific receptor types could be identified was utilized.

PC12 cells [4] = experiment: Toxicity to PC12 cells; assay type: cell-based, rat; settings: 100 μM
Procedure: as §2, §3

p75^NTR /TrkA = experiment: Receptor crosslinking of 125I-NGF with transition metal ions (receptor selectivity); assay type: binding
Procedure: as §3

Sequence of p75^NTR /TrkA (P01139 122-239): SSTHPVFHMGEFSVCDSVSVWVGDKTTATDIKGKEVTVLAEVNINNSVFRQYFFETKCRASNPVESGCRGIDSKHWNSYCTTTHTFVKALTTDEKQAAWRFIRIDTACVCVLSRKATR
Sequence of p75^NTR /TrkA (P07174 30-425 partner): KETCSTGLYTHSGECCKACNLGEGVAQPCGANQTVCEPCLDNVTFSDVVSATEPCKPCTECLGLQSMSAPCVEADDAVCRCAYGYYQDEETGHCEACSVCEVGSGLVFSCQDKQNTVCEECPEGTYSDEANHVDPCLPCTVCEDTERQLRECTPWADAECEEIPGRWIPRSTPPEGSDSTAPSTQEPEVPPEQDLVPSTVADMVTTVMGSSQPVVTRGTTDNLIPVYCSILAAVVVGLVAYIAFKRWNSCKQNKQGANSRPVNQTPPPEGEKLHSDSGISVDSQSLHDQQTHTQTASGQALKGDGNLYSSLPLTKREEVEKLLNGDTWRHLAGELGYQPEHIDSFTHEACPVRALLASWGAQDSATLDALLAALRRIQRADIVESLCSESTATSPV
Sequence of p75^NTR /TrkA (P35739 33-799 partner): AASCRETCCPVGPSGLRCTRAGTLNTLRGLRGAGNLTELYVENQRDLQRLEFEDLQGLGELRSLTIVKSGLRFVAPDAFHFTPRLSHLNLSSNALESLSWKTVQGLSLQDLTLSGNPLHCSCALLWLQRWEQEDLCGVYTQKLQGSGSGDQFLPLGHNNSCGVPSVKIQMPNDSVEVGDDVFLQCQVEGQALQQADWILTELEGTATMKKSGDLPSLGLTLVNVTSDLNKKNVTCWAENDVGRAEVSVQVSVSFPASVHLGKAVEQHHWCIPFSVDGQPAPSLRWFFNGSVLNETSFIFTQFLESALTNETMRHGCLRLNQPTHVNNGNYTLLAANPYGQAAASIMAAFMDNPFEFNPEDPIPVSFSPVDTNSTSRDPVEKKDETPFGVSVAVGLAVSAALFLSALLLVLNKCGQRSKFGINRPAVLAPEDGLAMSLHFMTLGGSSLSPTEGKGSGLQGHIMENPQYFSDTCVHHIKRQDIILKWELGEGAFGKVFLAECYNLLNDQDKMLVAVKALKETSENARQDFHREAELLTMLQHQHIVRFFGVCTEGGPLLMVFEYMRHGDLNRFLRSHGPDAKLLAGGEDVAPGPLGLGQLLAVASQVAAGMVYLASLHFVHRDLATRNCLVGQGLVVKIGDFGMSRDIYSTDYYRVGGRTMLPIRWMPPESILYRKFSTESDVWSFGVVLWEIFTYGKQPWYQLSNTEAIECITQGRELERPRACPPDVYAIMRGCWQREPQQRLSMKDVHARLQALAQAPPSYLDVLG
T3 sequence (P01139 122-239): as the sequence (P01139 122-239) above
T1 sequence (P01139 122-239): as above
T2 sequence (P01139 122-239): as above

Compound | Total Binding to PC12 cells (p75^NTR and TrkA [1]) [% control] | Prevention of 125I-NGF binding to PC12 cells (p75^NTR and TrkA [2]) | NGF Protomer Conformation (active/inactive) (NGF) | Antagonism of NGF-dependent survival (PC12 cells [3]) | Survival @ 50 pM NGF (PC12 cells [3]) [% control] | Survival @ 1 nM NGF (PC12 cells [3]) [% control] | Toxicity (PC12 cell viability) (PC12 cells [4]) [% control] | Blocking of NGF binding to TrkA and p75NTR in receptor crosslinking (p75^NTR /TrkA) | Receptor binding activity of NGF modified with DEPC (p75^NTR and TrkA [1]) | Protomer crosslinking efficiency of NGF modified with DEPC (NGF; no Zn2+)
[Cu+2] [Cu^2+] | -16 ± 7 | ability to prevent binding | active | ability to antagonize the NGF-dependant survival | -2 ± 19 | -6 ± 8 | 74 ± 10 | blocked binding to both receptors | – | –
CCOC(=O)OC(=O)OCC [DEPC, diethyl-pyrocarbonate, reference compound] | – | – | – | – | – | – | – | – | loss in receptor binding activity | reduction in protomer crosslinking efficiency
[Mn+2] [Mn^2+] | 95 ± 24 | – | inactive | – | 91 ± 5 | 59 ± 24 | 82 ± 4 | did not have a significant effect | – | –
[Pd+2] [Pd^2+] | -5 ± 1 | ability to prevent binding | active | – | 82 ± 9 | 125 ± 48 | 75 ± 6 | blocked binding to both receptors | – | –
[Pt+2] [Pt^2+] | 68 ± 11 | – | active | ability to antagonize the NGF-dependant survival | 74 ± 21 | 92 ± 35 | 93 ± 6 | blocked binding to both receptors | – | –
